Results as given in patent US20200236933A1, “USE OF A NON-IONIC SURFACTANT WHICH IS A POLYOL DERIVATIVE AS A PLANT GROWTH STIMULATING AGENT OR AS AN ADJUVANT” (priority 2017, published 2020).

Experiments:
parsley plants = test: Protein content of parsley; format: in vivo; conditions: 40 ml of 0.75% solution every three days, 23 days
Procedure: Each batch consists of four pots. After 23 days of treatment the leaves are cut and an analysis of the amount of protein is carried out.

Septoria leaf spot = test: Reduction of phytosanitary products on wheat; format: in vivo, soft winter wheat (GARCIA variety); conditions: 25% of recommended dose (0.15 L/ha Priaxor + 0.15 L/ha Reimer Pro) plus 3 L/ha sucrose stearate; start of coming into ear
Procedure: Assays in a climate-controlled chamber were carried out on soft winter wheat (GARCIA variety, Arvalis). The wheat was sowed in containers of 1 meter by 1 meter. […] Priaxor® comprises two active ingredients: fluxapyroxad (belonging to the SDHI family) and pyraclostrobin (belonging to the strobilurin family) and Reimer® Pro comprises the active ingredient metconazole (belonging to the triazole family).
The containers were then taken out of the climate-controlled chamber and disposed near a field having more than 50% of wheat plants diseased with Septoria leaf spot. After 1 day, the containers were placed back in the climate-controlled chamber under controlled conditions.

[1] = system: detached leaves of Buddleja davidii; test: Persistence of the mixture at the foliar surface; conditions: 1% with 0.1% colorant; rinses with water
Procedure: The effect of the invention on the persistence of the mixture was evaluated after spraying a solution colored blue on detached leaves of Buddleja davidii.
After spraying, the leaves are left at ambient temperature until the sprayed solution has evaporated.
Next, several operations of rinsing the leaves with water are carried out. The rinse water is collected after each rinse and photographs are taken to observe and compare the coloration of the rinse waters. An absorbance measurement at 630 nm is also carried out by spectrophotometry.

Helminthosphaeria = test: Reduction of phytosanitary products on maize; format: in vivo, maize (P7043, Pioneer); conditions: 25% of recommended dose (0.25 L/ha Amistar + 0.6 L/ha Cicero) plus 3 L/ha sucrose stearate; 12-14 leaf stage
Procedure: Assays in a climate-controlled chamber were carried out on maize ([…], Pioneer). The maize was sowed in containers of 1 meter by 1 meter. […] […]® comprises the active ingredient: azoxystrobin (belonging to the strobilurin family), and Cicero® comprises two active ingredients: chlorothalonil (belonging to the chloronitrile family), and flutriafol (belonging to the triazole family). […] The containers were then taken out of the climate-controlled chamber and disposed near a field having more than 50% of maize plants diseased with Helminthosphaeria. After 1 day, the containers were placed back in the climate-controlled chamber under controlled conditions.

rape leaf = test: Penetration of a colored aqueous solution through the cuticle; conditions: 2.5% solution, 2 h on rape leaf then wiped
Procedure: Rape, a plant known for having a thick cuticle, was chosen in order to test the effectiveness of the invention as a penetrating agent.
A colorant in aqueous solution was deposited on a rape leaf, then left for 2 h and then wiped.

soybeans = test: Germination of soybeans after immersion treatment; format: in vivo; conditions: soybeans immersed 1 h in 0.75% solution
Procedure: The beans are next dried in a heating tunnel at 45° C. for one hour. Four batch repetitions of 15 beans are deposited on Petri dishes containing a medium composed of 2% Agar Agar and 98% water.
The Petri dishes are kept at ambient temperature and in darkness. Each day the number of germinated beans (having a radicle) is counted.

parsley leaves = test: Calcium content of the leaves; format: in vivo; conditions: 3% solution, watering every three days and spraying twice daily, seven days
Source text: After seven days of treatment, the leaves are harvested and analyzed to determine their calcium content.

Aspergillus niger = test: Fungicide effect by antibiogram type method; format: cell-based
Source text: In order to evaluate any impact of the sugar esters used according to the invention on microorganisms, the fungicide effect was searched for by an antibiogram type method. The method consists of: • spreading a solution contaminated with the mold Aspergillus niger on the surface of a Petri dish containing glucose gel growth medium with chloramphenicol. • arrange 4 sterile antibiogram disks of 6 mm diameter per Petri dish. • inoculate with 3 drops (0.071 g) of solution to test or control solution per disk. The dishes are next placed in the incubator at 25° C. for 5 days. Measurement of the inhibitory diameter is carried out every day.

parsley seeds = test: Germination of parsley seeds after immersion treatment; format: in vivo; conditions: parsley seeds immersed 1 h in 0.75% solution
Procedure: The seeds are next dried in a heating tunnel at 45° C. for one hour. Two batch repetitions of 48 seeds are deposited on Petri dishes containing a medium composed of 2% Agar Agar and 98% water.
The Petri dishes are kept at ambient temperature and in darkness. Each day the number of seeds that have germinated (having a radicle) is counted.

[2] = Homogenization of the mixture; format: physicochemical; conditions: 1% with 2% glycerin colored blue
Source text: The mixtures were next stirred in equivalent manner. Photographs are taken after stirring.

[3] = system: winter barley (Sobell variety); test: Yield of winter barley in climate controlled chamber; format: in vivo; conditions: 3 l/ha of 3% solution sprayed at commencement of tillering
Procedure: Assays in a climate controlled chamber (temperature 22° C./20° C., photoperiod 16 h/8 h, 25,000 lux) were carried out on winter barley (Sobell variety, Arvalis). The barley was sowed in containers of 1 meter by 1 meter.
The plants were then watered every 2 weeks with the same amount of water for both control batch and treated batch.
The yields were then calculated as the ratio of the weight of harvested seeds to the sowed area. This ratio is expressed in q/ha.

maize seeds = test: Root growth (rootlets) of maize seeds; format: in vivo; conditions: maize seeds immersed 1 h in 2.5% solution; after two days
Procedure: The seeds are next dried in a heating tunnel at 45° C. for one hour. Four batch repetitions of 16 seeds are deposited on Petri dishes containing a medium composed of 2% Agar Agar and 98% water.
The Petri dishes are kept at ambient temperature and in darkness.

For sucrose stearate, the “increase in the protein amount compared with the control batch” value (parsley plants) was 56%, the “plants diseased with Septoria leaf spot” value (Septoria leaf spot) was 20% and the “persistence of the mixture on rinsing” value [1] was “still present even after the 4th rinse”. The “plants presenting Helminthosphaeria spots” value (Helminthosphaeria) was “less than 10%”, the “penetration of the colorant through the cuticle” value (rape leaf) was “enables the colorant to color the leaf and thus to penetrate through the cuticle” and the “increase of the germination kinetics on average” value (soybeans) was 25%. The “germinated seeds, treated batch compared with the control batch” value (soybeans; after 1 day) was 4 times, the “reduction in the level of calcium in the leaves” value (parsley leaves) was 17% and the Inhibitory diameter (Aspergillus niger; 0.1% solution, D1) was 0 mm. It also gave an Inhibitory diameter (Aspergillus niger; 0.1% solution, D2) of 0 mm, an Inhibitory diameter (Aspergillus niger; 0.1% solution, D3) of 0 mm and an Inhibitory diameter (Aspergillus niger; 0.1% solution, D4) of 0 mm. It also gave an Inhibitory diameter (Aspergillus niger; 0.1% solution, D5) of 0 mm, an Inhibitory diameter (Aspergillus niger; 1% solution, D1) of 0 mm and an Inhibitory diameter (Aspergillus niger; 1% solution, D2) of 0 mm. For the same substance, the Inhibitory diameter (Aspergillus niger; 1% solution, D3) was 0 mm, the Inhibitory diameter (Aspergillus niger; 1% solution, D4) was 0 mm and the Inhibitory diameter (Aspergillus niger; 1% solution, D5) was 0 mm. The Inhibitory diameter (Aspergillus niger; 3% solution, D1) was 0 mm, the Inhibitory diameter (Aspergillus niger; 3% solution, D2) was 0 mm and the Inhibitory diameter (Aspergillus niger; 3% solution, D3) was 0 mm. The Inhibitory diameter (Aspergillus niger; 3% solution, D4) was 0 mm, the Inhibitory diameter (Aspergillus niger; 3% solution, D5) was 0 mm and the Inhibitory diameter (Aspergillus niger; 10% solution, D1) was 0 mm. The Inhibitory diameter (Aspergillus niger; 10% solution, D2) was 0 mm, the Inhibitory diameter (Aspergillus niger; 10% solution, D3) was 0 mm and the Inhibitory diameter (Aspergillus niger; 10% solution, D4) was 0 mm. For the same substance, the Inhibitory diameter (Aspergillus niger; 10% solution, D5) was 0 mm, the fungicide effect (Aspergillus niger; whatever the concentrations tested (0.1-10%)) was “no fungicide effect” and the “increase of the germination kinetics on average” value (parsley seeds) was 10%. The “germinated seeds, treated batch compared with the control batch” value (parsley seeds; between 4 days and 6 days) was 2 times, the “homogenization of the mixture” value [2] was “better homogenization of the mixture” and the Yield [3] was 67.9 q/ha. The yield increase [3] was 25% and the “rootlets on the germinated seeds” value (maize seeds) was “rootlet presence is observed”.
